In PubChem BioAssay AID248 (DTP/NCI, 2004):
Values joined by “and” are separate entries in the source; they are usually repeats but may differ in a detail not shown here. Equal values may be shown once. Toxic doses and inconclusive results are not listed. Rule as the data show it: active = T/C of 150% or more; inactive = T/C below 125%.

System: L1210 leukemia ip in BDF1 mice, survival T/C
Assay: NCI In Vivo Anticancer Drug Screen. Data for tumor model L1210 Leukemia (intraperitoneal) in B6D2F1 (BDF1) mice
Settings: endpoint: mean survival time, higher = longer survival
How it was run: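 Ratio derived from survival: compound-dosed mice over vehicle-dosed mice, all bearing a transplantable tumor.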

[1] = dose: 100.0 mg/kg/injection, schedule: Q01DX001 (ip), vehicle: saline
[2] = dose: 200.0 mg/kg/injection, schedule: Q01DX001 (ip), vehicle: saline
[3] = dose: 100.0 mg/kg/injection, schedule: Q01DX009 (ip), vehicle: Klucel (hydroxypropylcellulose) (HPC)
[4] = dose: 100.0 mg/kg/injection, schedule: Q04DX003 (ip), vehicle: Klucel (hydroxypropylcellulose) (HPC)
[5] = dose: 200.0 mg/kg/injection, schedule: Q01DX009 (ip), vehicle: Klucel (hydroxypropylcellulose) (HPC)
[6] = dose: 200.0 mg/kg/injection, schedule: Q04DX003 (ip), vehicle: Klucel (hydroxypropylcellulose) (HPC)
[7] = dose: 400.0 mg/kg/injection, schedule: Q01DX009 (ip), vehicle: Klucel (hydroxypropylcellulose) (HPC)
[8] = dose: 400.0 mg/kg/injection, schedule: Q04DX003 (ip), vehicle: Klucel (hydroxypropylcellulose) (HPC)
[9] = dose: 400.0 mg/kg/injection, schedule: Q01DX001 (ip), vehicle: saline
[10] = dose: 50.0 mg/kg/injection, schedule: Q01DX009 (ip), vehicle: Klucel (hydroxypropylcellulose) (HPC)

Measured: T/C

C#CC1(OCC2CN(c3ccccc3)C(=O)O2)CCCCC1 (centres undefined)
inactive: dose: 100.0 mg/kg/injection, schedule: Q01DX009 (ip), vehicle: saline with Tween-80 106 % of control | dose: 100.0 mg/kg/injection, schedule: Q04DX003 (ip), vehicle: saline with Tween-80 97 % of control | dose: 200.0 mg/kg/injection, schedule: Q01DX009 (ip), vehicle: saline with Tween-80 108 % of control | dose: 200.0 mg/kg/injection, schedule: Q04DX003 (ip), vehicle: saline with Tween-80 105 % of control | dose: 400.0 mg/kg/injection, schedule: Q01DX009 (ip), vehicle: saline with Tween-80 108 % of control | dose: 400.0 mg/kg/injection, schedule: Q04DX003 (ip), vehicle: saline with Tween-80 92 % of control

CCC(N)CO (centres undefined)
inactive: [1] 97 % of control | [2] 106 % of control

O=C(Nc1cccc(Cl)c1)OCC(Cl)(Cl)Cl
inactive: [3] 88 % of control | [4] 98 % of control | [5] 95 % of control | [6] 104 % of control | [7] 92 % of control | [8] 100 % of control

CC(C)(C)c1cc([N+](=O)[O-])cc([N+](=O)[O-])c1O
inactive: dose: 1.56 mg/kg/injection, schedule: Q01DX009 (ip), vehicle: saline with Tween-80 93 % of control | dose: 1.56 mg/kg/injection, schedule: Q04DX003 (ip), vehicle: saline with Tween-80 100 % of control | dose: 3.13 mg/kg/injection, schedule: Q01DX009 (ip), vehicle: saline with Tween-80 93 % of control | dose: 3.13 mg/kg/injection, schedule: Q04DX003 (ip), vehicle: saline with Tween-80 96 % of control | dose: 6.25 mg/kg/injection, schedule: Q01DX009 (ip), vehicle: saline with Tween-80 96 % of control | dose: 6.25 mg/kg/injection, schedule: Q04DX003 (ip), vehicle: saline with Tween-80 107 % of control

NC(CSS(=O)(=O)O)=NCc1ccccc1
inactive: dose: 12.5 mg/kg/injection, schedule: Q04DX002 (ip), vehicle: Klucel (hydroxypropylcellulose) (HPC) 114 % of control | dose: 25.0 mg/kg/injection, schedule: Q04DX002 (ip), vehicle: Klucel (hydroxypropylcellulose) (HPC) 101 % of control | dose: 50.0 mg/kg/injection, schedule: Q04DX002 (ip), vehicle: Klucel (hydroxypropylcellulose) (HPC) 97 % of control

COc1c2ccoc2cc2oc(C)cc(=O)c12
inactive: dose: 37.5 mg/kg/injection, schedule: Q01DX001 (ip), vehicle: carboxymethylcellulose (CMC) 103 % of control | dose: 75.0 mg/kg/injection, schedule: Q01DX001 (ip), vehicle: carboxymethylcellulose (CMC) 100 % of control | dose: 150.0 mg/kg/injection, schedule: Q01DX001 (ip), vehicle: carboxymethylcellulose (CMC) 108 % of control

C=CCNC(=S)Nc1cc(Cl)ccc1OC
inactive: [3] 90 % of control | [4] 94 % of control | [6] 92 % of control | [7] 86 % of control | [8] 94 % of control

CCn1c(N)c(N=O)c(=O)[nH]c1=O
inactive: dose: 100.0 mg/kg/injection, schedule: Q01DX009 (ip), vehicle: gum acacia 95 % of control | dose: 200.0 mg/kg/injection, schedule: Q01DX009 (ip), vehicle: gum acacia 99 % of control

O=S(=O)(O)c1cc(O)c2c(O)c(N=Nc3ccccc3[As](=O)(O)O)c(S(=O)(=O)O)cc2c1
inactive: dose: 50.0 mg/kg/injection, schedule: Q04DX003 (ip), vehicle: saline 102 % of control | dose: 100.0 mg/kg/injection, schedule: Q04DX003 (ip), vehicle: saline 98 % of control and 99 % of control | dose: 200.0 mg/kg/injection, schedule: Q04DX003 (ip), vehicle: saline 103 % of control and 120 % of control | dose: 400.0 mg/kg/injection, schedule: Q04DX003 (ip), vehicle: saline 101 % of control and 103 % of control

CCCCCC(C)(O)CC (centres undefined)
inactive: [1] 93 % of control | [2] 102 % of control | [9] 96 % of control

NC(=S)NN=C1CCCCCCCCCC1
inactive: dose: 50.0 mg/kg/injection, schedule: Q01DX001 (ip), vehicle: saline 101 % of control | [1] 101 % of control | [2] 97 % of control | [9] 106 % of control

O=C(c1ccccc1)C1(c2ccccc2)OP(c2ccccc2)(c2ccccc2)(c2ccccc2)CC1c1ccccc1 (centres undefined)
inactive: dose: 12.5 mg/kg/injection, schedule: Q04DX003 (ip), vehicle: saline with Tween-80 90 % of control | dose: 25.0 mg/kg/injection, schedule: Q04DX003 (ip), vehicle: saline with Tween-80 92 % of control

COc1c(OC2OC(CO)C(O)C(O)C2O)cc2c(c1OC)-c1ccc(SC)c(=O)cc1C(NC(C)=O)CC2 (centres undefined)
inactive: dose: 6.0 mg/kg/injection, schedule: Q01DX009 (ip), vehicle: saline 97 % of control | dose: 12.0 mg/kg/injection, schedule: Q01DX001 (ip), vehicle: saline 98 % of control | dose: 12.0 mg/kg/injection, schedule: Q01DX009 (ip), vehicle: saline 98 % of control | dose: 25.0 mg/kg/injection, schedule: Q01DX001 (ip), vehicle: saline 100 % of control | dose: 25.0 mg/kg/injection, schedule: Q01DX009 (ip), vehicle: saline 101 % of control

O=C(NN1C(=O)c2cccc3cccc(c23)C1=O)NN1C(=O)c2cccc3cccc(c23)C1=O
inactive: dose: 100.0 mg/kg/injection, schedule: Q04DX002 (ip), vehicle: Klucel (hydroxypropylcellulose) (HPC) 92 % of control | dose: 200.0 mg/kg/injection, schedule: Q04DX002 (ip), vehicle: Klucel (hydroxypropylcellulose) (HPC) 92 % of control

NNC(=O)NO
inactive: dose: 33.0 mg/kg/injection, schedule: Q01DX009 (ip), vehicle: saline 114 % of control | dose: 75.0 mg/kg/injection, schedule: Q01DX001 (ip), vehicle: saline 101 % of control | dose: 150.0 mg/kg/injection, schedule: Q01DX001 (ip), vehicle: saline 103 % of control

CC/C(=C\c1ccc(Cl)cc1)[N+](=O)[O-]
inactive: dose: 12.5 mg/kg/injection, schedule: Q01DX009 (ip), vehicle: Klucel (hydroxypropylcellulose) (HPC) 98 % of control | dose: 25.0 mg/kg/injection, schedule: Q01DX009 (ip), vehicle: Klucel (hydroxypropylcellulose) (HPC) 100 % of control | dose: 25.0 mg/kg/injection, schedule: Q04DX003 (ip), vehicle: Klucel (hydroxypropylcellulose) (HPC) 100 % of control | [10] 88 % of control | dose: 50.0 mg/kg/injection, schedule: Q04DX003 (ip), vehicle: Klucel (hydroxypropylcellulose) (HPC) 105 % of control | [4] 101 % of control and 111 % of control

O=C(c1ccccc1)c1cccc(Cl)c1
inactive: [10] 105 % of control | [1] 98 % of control | [3] 101 % of control | [2] 96 % of control | [5] 100 % of control | [9] 93 % of control

Cc1ccc(S(=O)(=O)N2CCOCCOCCOc3ccc4ccccc4c3-c3c(ccc4ccccc34)OCCOCC2)cc1
inactive: dose: 100.0 mg/kg/injection, schedule: Q01DX001 (ip), vehicle: saline with Tween-80 95 % of control | dose: 200.0 mg/kg/injection, schedule: Q01DX001 (ip), vehicle: saline with Tween-80 88 % of control | dose: 400.0 mg/kg/injection, schedule: Q01DX001 (ip), vehicle: saline with Tween-80 95 % of control

O=C1N(Cc2ccccc2)C(=O)C(Cc2ccccc2)(Cc2ccccc2)C(=O)N1Cc1ccccc1
inactive: dose: 100.0 mg/kg/injection, schedule: Q01DX001 (ip), vehicle: carboxymethylcellulose (CMC) 101 % of control | dose: 200.0 mg/kg/injection, schedule: Q01DX001 (ip), vehicle: carboxymethylcellulose (CMC) 97 % of control | dose: 400.0 mg/kg/injection, schedule: Q01DX001 (ip), vehicle: carboxymethylcellulose (CMC) 95 % of control
